Experimental data taken from patent US20240108753A1, “NUCLEIC ACID DELIVERY” (NUNTIUS THERAPEUTICS LIMITED, priority 2021, published 2024).
Values belong to the compound of their own block, whether it stands above or below them. Where a SMILES comes first, the peptide text is derived from it. Where no end group is shown, it is not given here.

Columns and labels:
[1] = test system: clathrin mediated endocytosis, caveolae-mediated endocytosis and micropinocytosis; test: Endocytic experiments: transfection in the presence of uptake inhibitors; format: cell-based; details: inhibitor added to G1,2,3-RL-D/D-DNA nanoparticle transfection
Protocol: The uptake mechanism of the composition of the invention was investigated. Chlorpromazine was used to inhibit clathrin mediated endocytosis. Genistein and Rottlerin were also used; these agents have been reported to inhibit caveolae-mediated endocytosis and micropinocytosis respectively.
Cells were preincubated with each inhibitor (chlorpromazine, genstein and rottlerin) for 30 min at 37 C.
Subsequently transfection was performed for a further 4 h at 37 C as described in the transfection section, in the presence of the inhibitor.

[2] = Cell viability after transfection (crystal violet); format: cell-based, human; details: human, HeLa cells, following transfection with DNA formulations
Protocol: (§1) Cell viability. Cells were transfected as described in ‘Transfection Procedure’. Following 24 hours of transfection, the medium was removed and the cells were washed twice with PBS. Afterwards, the cells were dried for 1 hour at room temperature (to allow permeation of the nuclear stain). Crystal violet solution (50 μL of stock solution supplied by Sigma-Aldrich) was added to the cells. They were incubated for 15 min at room temperature. After washing with distilled water (5 times), the cells were dried for 30 min at room temperature. Then, MeOH (200 μL) was added and the suspension was incubated for 1 hour at room temperature. The relative amount of the crystal violet stain retained by viable cells was determined by the absorbance of the methanolic solution at 550 nm.

HeLa cells = test: Cell viability after transfection (crystal violet); format: cell-based, human; details: following transfection with DNA formulations
Protocol: as §1

[3] = cited from earlier work
[4] = Hydrodynamic size, polydispersity index and zeta potential of dendrimer, lipid and mRNA complexes; format: physicochemical; details: DOTMA/DOPE w/w 10:1 to mRNA; for Hydrodynamic size: dendrimer, lipid and mRNA complexes
Protocol: The hydrodynamic size, polydispersity index and Zeta potential was determined for a set of the dendrimers disclosed in Tables 1 and 2.

mice tissue = test: In vivo luciferase DNA expression assays; details: intravenous; DOTMA/DOPE w/w=1:1 to DNA; NP 20:1; 24 h
Protocol: Mice were injected with the dendrimers, lipid and DNA formulations, and tissues were isolated and snap-frozen for luciferase expression analysis 24 h and 48 h post intravenous and intramuscular injection respectively.
The tissues were homogenised with 1× reporter lysis buffer supplemented with Protease Inhibitors. Depending on the tissues, 1.5 to 3 times of the lysis buffer was used for the tissue homogenisation. Following the homogenisation, the lysates were centrifuged and the supernatants were used for assaying luciferase expression and protein content. The luciferase expression level was measured with a luminometer using a luciferase assay kit (Promega), following the manufacturer's instructions. The protein content was measured using a Biorad protein assay kit at 595 nm absorbance, following the manufacturer's instructions.
Mice were injected with the dendrimers, lipid and DNA formulation prepared for detection of luciferase expression post injection. Tissues were isolated and snap-frozen for luciferase expression analysis 24 h and 48 h post intravenous and intramuscular injection respectively.

C2C12 cells = test: In vitro DNA (luciferase reporter) delivery; format: cell-based; details: N:P=8:1, DOTMA/DOPE w/w=1:1 to DNA
Text: FIG. 25. In vitro DNA delivery to HeLa and C2C12 cells. HeLa cells were transfected with either DNA alone, G1,2,3-RL (N:P=5:1) and DOTMA/DOPE (at a w/w=1:1 to DNA) with DNA and G1,2,3-RL (N:P=5:1) and DOPG/DOPE (at a w/w=1:1 to DNA) with DNA (top panel). C2C12 cells (a muscle-derived cell line) were transfected with either DNA alone, polyethylenimine with DNA, G1,2-RL, 3-LR (N:P=8:1) and DOTMA/DOPE (at a w/w=1:1 to DNA) with DNA and NTX2 (N:P=8:1) and DOTMA/DOPE (at a w/w=1:1 to DNA) with DNA (bottom panel). The DNA used in both experiments encodes a luciferase reporter gene. NTX2 is a G1,2-RL, 3-LR dendrimer conjugated to a muscle targeting peptide ASSLINA ((LR)8(KRL)4(KRL)2KGSCGAASSLNIA(Acp)-NH2).
NTX2 is a G1,2-RL, 3-LR dendrimer conjugated to a muscle targeting peptide ASSLINA ((LR)8(KRL)4(KRL)2KGSCGAASSLNIA(Acp)-NH2).

Compound: CN(C)CCCN1c2ccccc2Sc2ccc(Cl)cc21 [Chlorpromazine]
inhibition of transfection [1]: 80%

Compound: CC(C)C[C@H](NC(=O)[C@H](CCCCN)NC(=O)[C@H](CCCCNC(=O)[C@H](CC(C)C)NC(=O)[C@H](CCCCN)NC(=O)[C@H](CCCCNC(=O)[C@H](CC(C)C)NC(=O)[C@@H](N)CCCCN)NC(=O)[C@H](CC(C)C)NC(=O)[C@@H](N)CCCCN)NC(=O)[C@H](CC(C)C)NC(=O)[C@H](CCCCN)NC(=O)[C@H](CCCCNC(=O)[C@H](CC(C)C)NC(=O)[C@@H](N)CCCCN)NC(=O)[C@H](CC(C)C)NC(=O)[C@@H](N)CCCCN)C(=O)NCCCC[C@H](NC(=O)[C@H](CC(C)C)NC(=O)[C@H](CCCCN)NC(=O)[C@H](CCCCNC(=O)[C@H](CC(C)C)NC(=O)[C@H](CCCCN)NC(=O)[C@H](CCCCNC(=O)[C@H](CC(C)C)NC(=O)[C@@H](N)CCCCN)NC(=O)[C@H](CC(C)C)NC(=O)[C@@H](N)CCCCN)NC(=O)[C@H](CC(C)C)NC(=O)[C@H](CCCCN)NC(=O)[C@H](CCCCNC(=O)[C@H](CC(C)C)NC(=O)[C@@H](N)CCCCN)NC(=O)[C@H](CC(C)C)NC(=O)[C@@H](N)CCCCN)C(=O)NCC(=O)N[C@@H](CO)C(=O)N[C@@H](CS)C(N)=O [G1,2,3-KL, (KL)8(KKL)4(KKL)2KGSC-NH2] (HELM PEPTIDE1{K.L.K.K.L.K.K.L.K.G.S.C.[am]}|PEPTIDE2{K.L}|PEPTIDE3{K.L.K.K.L.K.K.L}|PEPTIDE4{K.L}|PEPTIDE5{K.L.K.K.L}|PEPTIDE6{K.L}|PEPTIDE7{K.L.K.K.L}|PEPTIDE8{K.L}$PEPTIDE1,PEPTIDE2,3:R3-2:R2|PEPTIDE3,PEPTIDE4,3:R3-2:R2|PEPTIDE5,PEPTIDE6,3:R3-2:R2|PEPTIDE7,PEPTIDE8,3:R3-2:R2|PEPTIDE1,PEPTIDE7,6:R3-5:R2|PEPTIDE1,PEPTIDE3,9:R3-8:R2|PEPTIDE3,PEPTIDE5,6:R3-5:R2$$$V2.0)
viability at 24 h [2]: ≥ 40%

Compound: CC(C)C[C@H](NC(=O)[C@@H](N)CCCNC(=N)N)C(=O)NCCCC[C@H](NC(=O)[C@H](CC(C)C)NC(=O)[C@@H](N)CCCNC(=N)N)C(=O)NCC(=O)N[C@@H](CO)C(=O)N[C@@H](CS)C(N)=O [G1-RL, (RL)2KGSC-NH2] (HELM PEPTIDE1{R.L.K.G.S.C.[am]}|PEPTIDE2{R.L}$PEPTIDE1,PEPTIDE2,3:R3-2:R2$$$V2.0)
cell death (HeLa cells): 40%

Compound: O=c1c(-c2ccc(O)cc2)coc2cc(O)cc(O)c12 [Genistein]
inhibition of transfection [1]: around 50%

Compound: CC(=O)c1c(O)c(C)c(O)c(Cc2c(O)c3c(c(C(=O)/C=C/c4ccccc4)c2O)OC(C)(C)C=C3)c1O [Rottlerin]
inhibition of transfection [1]: around 50%

Compound: ClC(Cl)(Cl)Cl [carbon tetrachloride]
AST and ALT threshold levels in disease model of liver damage ([3]; Bonnet et al 2008): greater than 7000 U/L

Polydispersity Index (PDI) ([4]; N:P 0.16:1): 0.168
Zeta Potential ([4]; N:P 0.16:1): 43 mV
Polydispersity Index (PDI) ([4]; N:P 8:1): 0.272
Zeta Potential ([4]; N:P 8:1): 60 mV
Hydrodynamic size ([4]; N:P 0.16:1): 121 nm
Hydrodynamic size ([4]; N:P 8:1): 83 nm
Compound: (LR)8(KLR)4(KLR)2KGSC-NH2 [G1,2,3-LR]
luciferase expression in tissues, DNA delivery (mice tissue): the most effective delivery to skeletal muscle

Compound: (LR)8(KRL)4(KRL)2KGSCGAASSLNIA(Acp)-NH2 [NTX2]
luciferase expression after DNA transfection (C2C12 cells): further increase transfection efficiency

Compound: KLKLKGSC-NH2 [G1-KL, (KL)2KGSC-NH2]
cell death (HeLa cells): 40%

Compound: Lipopolysaccharides
TNF-alpha level ([3]; in vivo): up to 5000 μg/mL
